Source: US12410171B2, “Tropomyosin receptor kinase (TRK) degradation compounds and methods of use” (Cullgen (Shanghai), Inc., priority 2020, dated 2025)

Biological target: T1, TPM3-TRKA fusion protein (Homo sapiens, UniProt P04629)
T1 construct: The resulted chimeric proteins always retain the kinase domain of TRK proteins; TPM3 (fusion partner, N-terminal part of tropomyosin alpha-3, P06753); endogenous in cells; host or cells: KM12 colon cancer cells; the other entry of the earlier key: TPM3 (P06753, Tropomyosin alpha-3 chain)
Assay: TPM3-TRKA fusion protein levels in KM12 cells (Western blot)
Assay type: cell-based
Conditions: 16 h; TPM3-TRKA degradation in KM12 cells at 10 nM compound, category of percentage degradation; read-out: Degradation (at 10 nM)
Method: KM12 cells were treated with DMSO or indicated compounds at 100 nM for 16 hours.
KM12 cells were treated with DMSO or indicated compounds at 0. 1 nM, 1 nM or 10 nM for 16 hours.
KM12 cells were treated with DMSO or indicated compounds at various concentrations for 16 hours.
KM12 cells were treated with DMSO or indicated compounds at various concentrations for 4 hours.
KM12 cells (a cancer model comprising a colon cancer cell line) were treated with DMSO or indicated compounds at various concentrations for 4 hours.
KM12 cells were treated with heterobifunctional compounds or their corresponding control compounds at 10 nM or 100 nM for 16 hours.
KM12 cells were treated with heterobifunctional compounds or their corresponding control compounds at 0.4-30 nM for 8-16 hours. […] Cells were authenticated using the short tandem repeat (STR) assays. […] Stable cell lines were established by lentivirus transduction, selected and maintained in medium containing 1 μg/mL puromycin (Beyotime Biotechnology).
Cultured cells were washed with cold PBS once and lysed in cold RIPA buffer supplemented with protease inhibitors and phosphatase inhibitors (Beyotime Biotechnology). The solutions were then incubated at 4° C. for 30 minutes with gentle agitation to fully lyse cells. For tumor tissues, tumors were cut into small pieces, milled with cold RIPA buffer using a mechanical homogenizer and lysed for 1 hour at 4° C. Cell lysates were centrifuged at 13,000 rpm for 10 minutes at 4° C. and pellets were discarded. Total protein concentrations in the lysates were determined by BCA assays (Beyotime Biotechnology). Cell lysates were mixed with Laemmli loading buffer to 1× and heated at 99° C. for 5 min. Proteins were resolved on SDS-PAGE and visualized by chemiluminescence. Images were taken by a ChemiDoc MP Imaging system (Bio-Rad). Protein bands were quantitated using the software provided by Bio-Rad.

T1 sequence (P04629 with tags, fused parts or gaps): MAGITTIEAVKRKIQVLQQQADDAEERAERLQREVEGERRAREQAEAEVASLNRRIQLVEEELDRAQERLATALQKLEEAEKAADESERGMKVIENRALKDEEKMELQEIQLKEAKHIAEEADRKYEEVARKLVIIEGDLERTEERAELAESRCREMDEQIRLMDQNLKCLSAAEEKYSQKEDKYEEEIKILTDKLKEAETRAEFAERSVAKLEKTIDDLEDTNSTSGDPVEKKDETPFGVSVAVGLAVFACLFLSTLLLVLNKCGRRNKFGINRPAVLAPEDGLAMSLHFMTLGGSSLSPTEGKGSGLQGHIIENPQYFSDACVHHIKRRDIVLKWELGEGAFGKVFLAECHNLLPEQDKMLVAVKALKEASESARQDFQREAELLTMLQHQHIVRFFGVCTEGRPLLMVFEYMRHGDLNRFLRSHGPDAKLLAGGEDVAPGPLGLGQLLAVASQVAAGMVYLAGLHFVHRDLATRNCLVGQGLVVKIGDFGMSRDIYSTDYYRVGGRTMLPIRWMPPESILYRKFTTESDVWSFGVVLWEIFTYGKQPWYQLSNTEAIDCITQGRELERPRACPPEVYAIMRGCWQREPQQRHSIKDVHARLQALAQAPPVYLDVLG

percent degradation of TPM3-TRKA protein at 0.01 µM	SMILES
50 to 80%	Cc1ncsc1-c1ccc(CNC(=O)[C@@H]2C[C@@H](O)CN2C(=O)[C@@H](NC(=O)CCCCCCCC(=O)N2CCN(c3ccc(C(=O)Nc4n[nH]c5ccc(Cc6cc(F)cc(F)c6)cc45)c(NC4CCOCC4)c3)CC2)C(C)(C)C)cc1 [CPD-037, (25,4R)-1-((S)-2-(9-(4-(4-((5-(3,5-Difluorobenzyl)-1H-indazol-3-yl)carbamoyl)-3-((tetrahydro-2H-pyran-4-yl)amino)phenyl)piperazin-1-yl)-9-oxononanamido)-3,3-dimethylbutanoyl)-4-hydroxy-N-(4-(4-methylthiazol-S-yl)benzyl)pyrrolidine-2-carboxamide]
< 50%	Cc1ncsc1-c1ccc(CNC(=O)[C@@H]2C[C@@H](O)CN2C(=O)[C@@H](NC(=O)CCOCCOCCOCCC(=O)N2CCN(c3ccc(C(=O)Nc4n[nH]c5ccc(Cc6cc(F)cc(F)c6)cc45)c(NC4CCOCC4)c3)CC2)C(C)(C)C)cc1 [CPD-039, (28,4R)-1-((S)-2-(tert-butyl)-16-(4-(4-((5-(3,5-Difluorobenzyl)-1H-indazol-3-yl)carbamoyl)-3-((tetrahydro-2H-pyran-4-yl)amino)phenyl)piperazin-1-yl)-4,16-dioxo-7,10,13-trioxa-3-azahexadecanoyl)-4-hydroxy-N-(4-(4-methylthiazol-5-yl)benzyl)pyrrolidine-2-carboxamide]
< 50%	Cc1ncsc1-c1ccc(CNC(=O)[C@@H]2C[C@@H](O)CN2C(=O)[C@@H](NC(=O)CCOCCOCCOCCOCCC(=O)N2CCN(c3ccc(C(=O)Nc4n[nH]c5ccc(Cc6cc(F)cc(F)c6)cc45)c(NC4CCOCC4)c3)CC2)C(C)(C)C)cc1 [CPD-041, (2S,4R)-1-((S)-2-(tert-butyl)-19-(4-(4-((5-(3,5-Difluorobenzyl)-1H-indazol-3-yl)carbamoyl)-3-((tetrahydro-2H-pyran-4-yl)amino)phenyl)piperazin-1-yl)-4,19-dioxo-7,10,13,16-tetraoxa-3-azanonadecanoyl)-4-hydroxy-N-(4-(4-methylthiazol-5-yl)benzyl)pyrrolidine-2-carboxamide]
50 to 80%	Cc1ncsc1-c1ccc(CNC(=O)[C@@H]2C[C@@H](O)CN2C(=O)[C@@H](NC(=O)CCCCC(=O)N2CCN(c3ccc(C(=O)Nc4n[nH]c5ccc(Cc6cc(F)cc(F)c6)cc45)c(NC4CCOCC4)c3)CC2)C(C)(C)C)cc1 [CPD-044]
50 to 80%	Cc1ncsc1-c1ccc(CNC(=O)[C@@H]2C[C@@H](O)CN2C(=O)[C@@H](NC(=O)COCC(=O)N2CCN(c3ccc(C(=O)Nc4n[nH]c5ccc(Cc6cc(F)cc(F)c6)cc45)c(NC4CCOCC4)c3)CC2)C(C)(C)C)cc1 [CPD-045, (28,4R)-1-((S)-2-(2-(2-(4-(4-((5-(3,5˜Difluorobenzyl)-1H-indazol-3-yl)carbamoyl)-3-((tetrahydro-2H-pyran-4-yl)amino)phenyl)piperazin-1-yl)-2-oxoethoxy)acetamido)-3,3-dimethylbutanoyl)-4-hydroxy-N-(4-(4-methylthiazol-5-yl)benzyl)pyrrolidine-2-carboxamide]
50 to 80%	Cc1ncsc1-c1ccc(CNC(=O)[C@@H]2C[C@@H](O)CN2C(=O)[C@@H](NC(=O)CCC(=O)N2CCN(c3ccc(C(=O)Nc4n[nH]c5ccc(Cc6cc(F)cc(F)c6)cc45)c(NC4CCOCC4)c3)CC2)C(C)(C)C)cc1 [CPD-046, (25,4R)-1-((S)-2-(4-(4-(4-((S-(3,5-Difluorobenzyl)-1H-indazol-3-yl)carbamoyl)-3,3-((tetrahydro-2H-pyran-4-yl)amino)phenyl)piperazin-1-yl)-4-oxobutanamido)-3,3-dimethylbutanoyl)-4-hydroxy-N-(4-(4-methylthiazol-S-yl)benzyl)pyrrolidine-2-carboxamide]
> 80%	Cc1ncsc1-c1ccc(CNC(=O)[C@@H]2C[C@@H](O)CN2C(=O)[C@@H](NC(=O)CCCCCC(=O)N2CCN(c3ccc(C(=O)Nc4n[nH]c5ccc(Cc6cc(F)cc(F)c6)cc45)c(NC4CCOCC4)c3)CC2)C(C)(C)C)cc1 [CPD-047, (28,4R)-1-((S)-2-(7-(4-(4-((5-(3,5-Difluorobenzyl)-1H-indazol-3-yl)carbamoyl)-3-((tetrahydro-2H-pyran-4-yl)amino)phenyl)piperazin-1-yl)-7-oxoheptanamido)-3,3-dimethylbutanoyl)-4-hydroxy-N-(4-(4-methylthiazol-5-yl)benzyl)pyrrolidine-2-carboxamide]
< 50%	Cc1ncsc1-c1ccc(CNC(=O)[C@@H]2C[C@@H](O)CN2C(=O)[C@@H](NC(=O)CCOCCC(=O)N2CCN(c3ccc(C(=O)Nc4n[nH]c5ccc(Cc6cc(F)cc(F)c6)cc45)c(NC4CCOCC4)c3)CC2)C(C)(C)C)cc1 [CPD-048, (28,4R)-1-((S)-2-(3-(3-(4-(4-((5-(3,5-Difluorobenzyl)-1H-indazol-3-yl)carbamoyl)-3-((tetrahydro-2H-pyran-4-yl)amino)phenyl)piperazin-1-yl)-3-oxopropoxy)propanamido)-3,3-dimethylbutanoyl)-4-hydroxy-N-(4-(4-methylthiazol-5-yl)benzyl)pyrrolidine-2-carboxamide]
> 80%	O=C1CCC(N2C(=O)c3cccc(NCCCCCCC(=O)N4CCN(c5ccc(C(=O)Nc6n[nH]c7ccc(Cc8cc(F)cc(F)c8)cc67)c(NC6CCOCC6)c5)CC4)c3C2=O)C(=O)N1 (stereo not drawn) [CPD-049, N—(S-(3,5-Difluorobenzyl)-1H-indazol-3-yl)-4-(4-(7-((2-(2,6-dioxopiperidin-3-yl)-1,3-dioxoisoindolin-4-yl)amino)heptanoyl)piperazin-1-yl)-2-((tetrahydro-2H-pyran-4-yl)amino)benzamide]
> 80%	O=C1CCC(N2C(=O)c3cccc(NCCCCC(=O)N4CCN(c5ccc(C(=O)Nc6n[nH]c7ccc(Cc8cc(F)cc(F)c8)cc67)c(NC6CCOCC6)c5)CC4)c3C2=O)C(=O)N1 (stereo not drawn) [CPD-050, N-(5-(3,5-Difluorobenzyl)-1H-indazol-3-yl)-4-(4-(5-((2-(2,6-dioxopiperidin-3-yl)-1,3-dioxoisoindolin-4-yl)amino)pentanoyl)piperazin-1-yl)-2-((tetrahydro-2H-pyran-4-yl)amino)benzamide]
> 80%	O=C1CCC(N2C(=O)c3cccc(NCCC(=O)N4CCN(c5ccc(C(=O)Nc6n[nH]c7ccc(Cc8cc(F)cc(F)c8)cc67)c(NC6CCOCC6)c5)CC4)c3C2=O)C(=O)N1 (stereo not drawn) [CPD-051, N-(5-(3,5-Difluorobenzyl)-1H-indazol-3-yl)-4-(4-(3-((2-(2,6-dioxopiperidin-3-yl)-1,3-dioxoisoindolin-4-yl)amino)propanoyl)piperazin-1-yl)-2-((tetrahydro-2H-pyran-4-yl)amino)benzamide]
> 80%	O=C1CCC(N2C(=O)c3cccc(NCCCCCCCC(=O)N4CCN(c5ccc(C(=O)Nc6n[nH]c7ccc(Cc8cc(F)cc(F)c8)cc67)c(NC6CCOCC6)c5)CC4)c3C2=O)C(=O)N1 (stereo not drawn) [CPD-052, N-(5-(3,5-Difluorobenzyl)-1H-indazol-3-yl)-4-(4-(8-((2-(2,6-dioxopiperidin-3-yl)-1,3-dioxoisoindolin-4-yl)amino)octanoyl)piperazin-1-yl)-2-((tetrahydro-2H-pyran-4-yl)amino)benzamide]
> 80%	O=C1CCC(N2C(=O)c3cccc(NCCOCCOCCOCCOCCOCCC(=O)N4CCN(c5ccc(C(=O)Nc6n[nH]c7ccc(Cc8cc(F)cc(F)c8)cc67)c(NC6CCOCC6)c5)CC4)c3C2=O)C(=O)N1 (stereo not drawn) [CPD-054, N-(5-(3,5-Difluorobenzyl)-1H-indazol-3-yl)-4-(4-(1-((2-(2,6-dioxopiperidin-3-yl)-1,3-dioxoisoindolin-4-yl)amino)-3,6,9,12, 15-pentaoxaoctadecan-18-oyl)piperazin-1-yl)-2-((tetrahydro-2H-pyran-4-yl)amino)benzamide]
> 80%	O=C1CCC(N2C(=O)c3cccc(NCC(=O)N4CCN(c5ccc(C(=O)Nc6n[nH]c7ccc(Cc8cc(F)cc(F)c8)cc67)c(NC6CCOCC6)c5)CC4)c3C2=O)C(=O)N1 (stereo not drawn) [CPD-055, N-(5-(3,5-Difluorobenzyl)-1HI-indazol-3-yl)-4-(4-((2-(2,6-dioxopiperidin-3-yl)-1,3-dioxoisoindolin-4-yl)glycyl)piperazin-1-yl)-2-((tetrahydro-2H-pyran-4-yl)amino)benzamide]
> 80%	O=C1CCC(N2C(=O)c3cccc(NCCCCCC(=O)N4CCN(c5ccc(C(=O)Nc6n[nH]c7ccc(Cc8cc(F)cc(F)c8)cc67)c(NC6CCOCC6)c5)CC4)c3C2=O)C(=O)N1 (stereo not drawn) [CPD-056, N-(5-(3,5-Difluorobenzyl)-1H-indazol-3-yl)-4-(4-(6-((2-(2,6-dioxopiperidin-3-yl)-1,3-dioxoisoindolin-4-yl)amino)hexanoyl)piperazin-1-yl)-2-((tetrahydro-2H-pyran-4-yl)amino)benzamide]
